One series relates to CHIKV DRDE-07. The experiment in a line: In vitro screening against CHIKV (CPE inhibition and MTT cell viability). The class given is cell-based, chikungunya virus. The settings on record: Table S1, CHIKV-infected Vero cells; for % Cell viability: 72 hpi, MTT assay; for CPE: arbitrary score of cytopathic effect at >48 hpi.
Another series concerns Vero cells. Briefly: Cytotoxicity MTT assay in Vero cells (MNTD, CC50). The class given is cell-based, African green monkey. The following applies: Table S1; Vero cells. Background: Formazan colour is commonly taken as a measure of viable cells.

Structures are written as SMILES.

In the case of `O=C(NNC(=O)c1cccnc1)c1ccccc1` [DCR4, N'-benzoylnicotinohydrazide], in the series on CHIKV DRDE-07, the “% Cell viability” value is 15% and the CPE result is reported as “++++ (>60% (++++))”. The same compound registered an MNTD in the series with Vero cells of 31.25 µM.

As to `O=C(NNC(=O)c1ccccc1Cl)c1cccnc1` [DCR5, N'-(2-chlorobenzoyl)nicotinohydrazide], in the series on CHIKV DRDE-07, the “% Cell viability” value is 13.49% and the CPE result is recorded as “++++ (>60% (++++))”. For the same compound, in the series with Vero cells, the MNTD stood at 31.25 µM.

On to `O=C(NNC(=O)c1cccnc1)c1ccc(Cl)cc1` [DCR6, N'-(4-chlorobenzoyl)nicotinohydrazide], for which, in the series with CHIKV DRDE-07, the “% Cell viability” value is given as 16.98% and the CPE result is listed as “++++ (>60% (++++))”. In the series with Vero cells, this compound gave an MNTD of 31.25 µM.

Take `CC(=O)NNC(=O)c1cccnc1` [DCR7, N'-acetylnicotinohydrazide]: in the series with CHIKV DRDE-07, the “% Cell viability” value is listed as 20.31% and the CPE result is “++++ (>60% (++++))”. For the same compound, the MNTD in the series on Vero cells was determined as 62.5 µM.

Turning to `O=C(CCl)NNC(=O)c1cccnc1` [DCR8, N'-(2-chloroacetyl)nicotinohydrazide], in the series with CHIKV DRDE-07, the “% Cell viability” value is recorded as 13.8% and the CPE entry is listed as “++++ (>60% (++++))”. In the series with Vero cells, this compound registered an MNTD of 31.25 µM.

For the compound `O=C(NNC(=O)c1ccncc1)c1ccccc1` [DCR9, N'-benzoylisonicotinohydrazide], in the series with CHIKV DRDE-07, the “% Cell viability” value is listed as 9.92% and the CPE result is given as “++++ (>60% (++++))”. In the series with Vero cells, this compound registered an MNTD of 31.25 µM.

As to `O=C(NNC(=O)c1ccccc1Cl)c1ccncc1` [DCR10, N'-(2-chlorobenzoyl)isonicotinohydrazide], in the series with CHIKV DRDE-07, the “% Cell viability” value amounted to 21.19% and the CPE entry is recorded as “++++ (>60% (++++))”. In addition, the MNTD with Vero cells is 31.25 µM.

As to `O=C(NNC(=O)c1ccc(Cl)cc1)c1ccncc1` [DCR11, N'-(4-chlorobenzoyl)isonicotinohydrazide], in the series on CHIKV DRDE-07, the “% Cell viability” value was determined as 22.85% and the CPE entry was “++++ (>60% (++++))”. This compound also came in with an MNTD with Vero cells of 31.25 µM.

On to `O=C(CCl)NNC(=O)c1ccncc1` [DCR12, N'-(2-chloroacetyl)isonicotinohydrazide], for which, in the series on CHIKV DRDE-07, the “% Cell viability” value was determined as 16.34% and the CPE entry was “++++ (>60% (++++))”. The MNTD in the series on Vero cells was found to be 31.25 µM.

For `CC(=O)NNC(=O)c1ccncc1` [DCR13, N'-acetylisonicotinohydrazide], in the series with CHIKV DRDE-07, the “% Cell viability” value came out at 15.07% and the CPE result is reported as “++++ (>60% (++++))”. For the same compound, the MNTD in the series on Vero cells was found to be 62.5 µM.

As to `O=C(N/N=C/c1ccccc1)c1cccnc1` [DCR14, (E)-N'-benzylidenenicotinohydrazide], in the series with CHIKV DRDE-07, the “% Cell viability” value came to 22.93% and the CPE result was “++++ (>60% (++++))”. For the same compound, the MNTD in the series on Vero cells stood at 31.25 µM.

Consider `Cc1ccccc1/C=N/NC(=O)c1cccnc1` [DCR15, (E)-N'-(2-methylbenzylidene)nicotinohydrazide], for which, in the series on CHIKV DRDE-07, the “% Cell viability” value is reported as 14.76% and the CPE entry was “++++ (>60% (++++))”. The compound further gave an MNTD with Vero cells of 31.25 µM.

Take `Cc1ccc(/C=N/NC(=O)c2cccnc2)cc1` [DCR16, (E)-N'-(4-methylbenzylidene)nicotinohydrazide]: in the series with CHIKV DRDE-07, the “% Cell viability” value is 18.49% and the CPE entry was “++++ (>60% (++++))”. This compound displayed an MNTD in the series with Vero cells of 31.25 µM.

As to `CCOc1ccc(/C=N/NC(=O)c2cccnc2)cc1OC` [DCR17, (E)-N'-(4-ethoxy-3-methoxybenzylidene)nicotinohydrazide], in the series with CHIKV DRDE-07, the “% Cell viability” value is listed as 0.1% and the CPE entry was “++++ (>60% (++++))”. Besides, the MNTD with Vero cells is listed as 31.25 µM.

Take `CCOc1cc(/C=N/NC(=O)c2cccnc2)ccc1O` [DCR18, (E)-N'-(3-ethoxy-4-hydroxybenzylidene)nicotinohydrazide]: in the series on CHIKV DRDE-07, the “% Cell viability” value amounted to 15.39% and the CPE entry was “++++ (>60% (++++))”. In the series on Vero cells, this compound gave an MNTD of 31.25 µM.

As to `O=C(N/N=C/c1cccc([N+](=O)[O-])c1)c1cccnc1` [DCR19, (E)-N'-(3-nitrobenzylidene)nicotinohydrazide], in the series on CHIKV DRDE-07, the “% Cell viability” value is recorded as 20.39% and the CPE entry is reported as “++++ (>60% (++++))”. The compound further had an MNTD in the series on Vero cells of 62.5 µM.

With `O=C(N/N=C/c1ccccc1[N+](=O)[O-])c1cccnc1` [DCR20, (E)-N'-(2-nitrobenzylidene)nicotinohydrazide], in the series with CHIKV DRDE-07, the “% Cell viability” value was 22.69% and the CPE result is “++++ (>60% (++++))”. This compound also yielded an MNTD with Vero cells of 31.25 µM.

In the case of `O=C(N/N=C/c1ccco1)c1cccnc1` [DCR21, (E)-N'-(furan-2-ylmethylene)nicotinohydrazide], in the series with CHIKV DRDE-07, the “% Cell viability” value is recorded as 0% and the CPE entry is reported as “++++ (>60% (++++))”. The compound further displayed an MNTD in the series on Vero cells of 62.5 µM.

For `O=C(N/N=C/c1cccc(Br)c1)c1cccnc1` [DCR22, (E)-N'-(3-bromobenzylidene)nicotinohydrazide], in the series with CHIKV DRDE-07, the “% Cell viability” value came out at 19.28% and the CPE entry is listed as “++++ (>60% (++++))”. The MNTD in the series with Vero cells turned out to be 15.6 µM.

`O=C(N/N=C/c1ccccc1Br)c1cccnc1` [DCR23, (E)-N'-(2-bromobenzylidene)nicotinohydrazide]: in the series on CHIKV DRDE-07, the “% Cell viability” value was 28.01% and the CPE result was “++++ (>60% (++++))”. In addition, in the series on Vero cells, the MNTD was determined as 15.6 µM.

For the compound `O=C(N/N=C/c1ccc(Cl)cc1)c1cccnc1` [DCR25, (E)-N'-(4-chlorobenzylidene)nicotinohydrazide], in the series with CHIKV DRDE-07, the “% Cell viability” value is reported as 30.15% and the CPE result is recorded as “++++ (>60% (++++))”. In the series with Vero cells, this compound had an MNTD of 62.5 µM.

Consider `O=C(N/N=C/c1ccc(Cl)cc1Cl)c1cccnc1` [DCR26, (E)-N'-(2,4-dichlorobenzylidene)nicotinohydrazide], for which, in the series with CHIKV DRDE-07, the “% Cell viability” value is listed as 26.11% and the CPE entry is “++++ (>60% (++++))”. Moreover, the MNTD with Vero cells was found to be 31.25 µM.

For `COc1cc(/C=N/NC(=O)c2cccnc2)cc(OC)c1OC` [DCR27, (E)-N'-(3,4,5-trimethoxybenzylidene)nicotinohydrazide], in the series with CHIKV DRDE-07, the “% Cell viability” value is recorded as 21.26% and the CPE entry is recorded as “++++ (>60% (++++))”. The compound further returned an MNTD with Vero cells of 31.25 µM.

`O=C(O)c1ccc(/C=N/NC(=O)c2cccnc2)cc1` [DCR28, (E)-4-((2-nicotinoylhydrazono)methyl)benzoic acid]: in the series with CHIKV DRDE-07, the “% Cell viability” value is 15.63% and the CPE entry was “++++ (>60% (++++))”. Moreover, the MNTD in the series with Vero cells turned out to be 62.5 µM.

`Cc1ccccc1/C=N/NC(=O)c1ccncc1` [DCR30, (E)-N'-(2-methylbenzylidene)isonicotinohydrazide]: in the series with CHIKV DRDE-07, the “% Cell viability” value is given as 23.8% and the CPE result is recorded as “++++ (>60% (++++))”. This compound also registered an MNTD in the series with Vero cells of 62.5 µM.

As to `Cc1ccc(/C=N/NC(=O)c2ccncc2)cc1` [DCR31, (E)-N'-(4-methylbenzylidene)isonicotinohydrazide], in the series with CHIKV DRDE-07, the “% Cell viability” value amounted to 1.03% and the CPE entry is recorded as “++++ (>60% (++++))”. This compound registered an MNTD with Vero cells of 62.5 µM.

With `CCOc1ccc(/C=N/NC(=O)c2ccncc2)cc1OC` [DCR32, (E)-N'-(4-ethoxy-3-methoxybenzylidene)isonicotinohydrazide], in the series with CHIKV DRDE-07, the “% Cell viability” value was found to be 6.03% and the CPE result was “++++ (>60% (++++))”. The MNTD in the series on Vero cells was 31.25 µM.

On to `CCOc1cc(/C=N/NC(=O)c2ccncc2)ccc1O` [DCR33, (E)-N'-(3-ethoxy-4-hydroxybenzylidene)isonicotinohydrazide], for which, in the series on CHIKV DRDE-07, the “% Cell viability” value is 0% and the CPE result was “++++ (>60% (++++))”. In addition, the MNTD with Vero cells amounted to 62.5 µM.

Regarding `O=C(N/N=C/c1cccc([N+](=O)[O-])c1)c1ccncc1` [DCR34, (E)-N'-(3-nitrobenzylidene)isonicotinohydrazide], in the series on CHIKV DRDE-07, the “% Cell viability” value amounted to 6.42% and the CPE result was “++++ (>60% (++++))”. The compound further came in with an MNTD with Vero cells of 62.5 µM.

Turning to `O=C(N/N=C/c1ccccc1[N+](=O)[O-])c1ccncc1` [DCR35, (E)-N'-(2-nitrobenzylidene)isonicotinohydrazide], in the series on CHIKV DRDE-07, the “% Cell viability” value came out at 9.84% and the CPE entry is given as “++++ (>60% (++++))”. For the same compound, in the series on Vero cells, the MNTD came to 62.5 µM.

As to `O=C(N/N=C/c1ccco1)c1ccncc1` [DCR36, (E)-N'-(furan-2-ylmethylene)isonicotinohydrazide], in the series with CHIKV DRDE-07, the “% Cell viability” value was 5% and the CPE result was “++++ (>60% (++++))”. Besides, the MNTD with Vero cells amounted to 62.5 µM.

In the case of `O=C(N/N=C/c1cccc(Br)c1)c1ccncc1` [DCR37, (E)-N'-(3-bromobenzylidene)isonicotinohydrazide], in the series on CHIKV DRDE-07, the “% Cell viability” value turned out to be 14.36% and the CPE result was “++++ (>60% (++++))”. Besides, in the series on Vero cells, the MNTD was determined as 31.25 µM.

Take `O=C(N/N=C/c1ccccc1Br)c1ccncc1` [DCR38, (E)-N'-(2-bromobenzylidene)isonicotinohydrazide]: in the series on CHIKV DRDE-07, the “% Cell viability” value is given as 25.1% and the CPE entry is on record as “++++ (>60% (++++))”. In the series with Vero cells, the MNTD came to 31.25 µM.

Take `O=C(N/N=C/c1ccc(Cl)cc1)c1ccncc1` [DCR40, (E)-N'-(4-chlorobenzylidene)isonicotinohydrazide]: in the series on CHIKV DRDE-07, the “% Cell viability” value came out at 5.23% and the CPE entry is “++++ (>60% (++++))”. Moreover, the MNTD in the series with Vero cells stood at 31.25 µM.

Turning to `O=C(N/N=C/c1ccc(Cl)cc1Cl)c1ccncc1` [DCR41, (E)-N'-(2,4-dichlorobenzylidene)isonicotinohydrazide], in the series on CHIKV DRDE-07, the “% Cell viability” value is reported as 35.79% and the CPE entry is listed as “++++ (>60% (++++))”. In addition, the MNTD in the series with Vero cells came to 31.25 µM.

For the compound `COc1cc(/C=N/NC(=O)c2ccncc2)cc(OC)c1OC` [DCR42, (E)-N'-(3,4,5-trimethoxybenzylidene)isonicotinohydrazide], in the series on CHIKV DRDE-07, the “% Cell viability” value stood at 12.22% and the CPE entry is on record as “++++ (>60% (++++))”. The same compound returned an MNTD in the series with Vero cells of 31.25 µM.

Regarding `C#CCOC(=O)C1=C(C)NC(=O)NC1c1ccc([N+](=O)[O-])cc1` (centres unmarked) [DCR93, prop-2-yn-1-yl 6-methyl-4-(4-nitrophenyl)-2-oxo-1,2,3,4-tetrahydropyrimidine-5-carboxylate], in the series with CHIKV DRDE-07, the “% Cell viability” value turned out to be 12.17% and the CPE result is reported as “++++ (>60% (++++))”.

Source of the values: publication PMC10674894 (Viruses, 2023).
